Measured values as given in patent US7196110B2, “N-substituted tricyclic 3-aminopyrazoles as inhibitors for the treatment of cell proliferative disorders” (Janssen Phamaceutica N.V., priority 2002, dated 2007).

Molecular target: T1, PDGF-receptor beta enzyme comprising the tyrosine kinase domain (Homo sapiens, UniProt P09619)
T1 construct: from amino acid 545 to 1106 of GenBank Access NO: AAA36427
Experiment: Inhibition of PDGF-receptor kinase activity (cell-free, PLC1 peptide, 33P Flashplate)
Type: biochemical
Details: PDGF-R kinase activity; for inhibition at 10 µM: compound at 10 uM, read-out: Percent Inhibition @ 10 uM; for IC50: read-out: IC50
In short: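 Recombinant kinase domain (aa 545–1106) phosphorylated a biotinylated PLC1 peptide with 5 μM ATP plus 33P-γ-ATP, in Tris pH 8, MgCl2, Na3VO4 and 1 mM DTT, for 60 min at 30 °C. Retained 33P was counted after washing. IC50 is the concentration halving activity versus no-inhibitor reactions.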

T1 sequence (P09619 545-1106): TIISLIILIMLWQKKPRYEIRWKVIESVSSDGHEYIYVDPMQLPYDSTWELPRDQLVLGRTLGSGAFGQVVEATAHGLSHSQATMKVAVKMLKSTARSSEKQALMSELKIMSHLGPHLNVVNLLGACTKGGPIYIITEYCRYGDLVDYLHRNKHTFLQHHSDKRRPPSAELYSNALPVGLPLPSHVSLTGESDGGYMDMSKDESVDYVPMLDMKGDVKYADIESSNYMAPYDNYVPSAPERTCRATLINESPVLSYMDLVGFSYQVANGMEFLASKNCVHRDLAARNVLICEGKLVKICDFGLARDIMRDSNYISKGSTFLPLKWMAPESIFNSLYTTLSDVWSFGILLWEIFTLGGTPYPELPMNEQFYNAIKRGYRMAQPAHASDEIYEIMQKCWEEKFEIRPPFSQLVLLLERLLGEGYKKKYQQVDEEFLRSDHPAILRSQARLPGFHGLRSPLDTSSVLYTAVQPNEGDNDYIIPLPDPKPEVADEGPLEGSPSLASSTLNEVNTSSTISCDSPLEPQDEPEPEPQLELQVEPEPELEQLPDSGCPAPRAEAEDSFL

SMILES | inhibition at 10 µM [%] | IC50 [nM]
COc1cc2c(cc1OC)-c1c(c(Nc3cccc(F)c3)nn1C(=O)NCCNC(=O)c1ccccc1O)C2 [Compound 542, 3-(3-Fluoro-phenylamino)-6,7-dimethoxy-4H-indeno[1,2-c]pyrazole-1-carboxylic acid [2-(2-hydroxy-benzoylamino)-ethyl]-amide] | 21 | 
COc1cc2c(cc1OC)-c1c(c(Nc3cccc(F)c3)nn1C(=O)NCCOCCOCCO)C2 [Compound 544, 3-(3-Fluoro-phenylamino)-6,7-dimethoxy-4H-indeno[1,2-c]pyrazole-1-carboxylic acid {2-[2-(2-hydroxy-ethoxy)-ethoxy]-ethyl}-amide] | 60 | 
CCC1c2cc(OC)c(OC)cc2-c2c1c(Nc1cccc(Br)c1)nn2C(=O)c1ccccc1 (stereo not shown) [Compound 546, [3-(3-Bromo-phenylamino)-4-ethyl-6,7-dimethoxy-4H-indeno[1,2-c]pyrazol-1-yl]-phenyl-methanone] | 72.5 | 
CCC1c2cc(OC)c(OC)cc2-c2c1c(Nc1cccc(Br)c1)nn2C(=O)OCCOCCOCCO (stereo not shown) [Compound 547, 3-(3-Bromo-phenylamino)-4-ethyl-6,7-dimethoxy-4H-indeno[1,2-c]pyrazole-1-carboxylic acid 2-[2-(2-hydroxy-ethoxy)-ethoxy]-ethyl ester] | 68.5 | 
COc1cc2c(cc1OC)C(C)c1c(Nc3cccc(Br)c3)nn(C(=O)OCCOCCOCCO)c1-2 (stereo not shown) [Compound 548, 3-(3-Bromo-phenylamino)-6,7-dimethoxy-4-methyl-4H-indeno[1,2-c]pyrazole-1-carboxylic acid 2-[2-(2-hydroxy-ethoxy)-ethoxy]-ethyl ester] | 82.5 | 214
COc1cc2c(cc1OCc1ccccc1)-c1n[nH]c(Nc3cccc(F)c3)c1C2 [Compound 549, (7-Benzyloxy-6-methoxy-2,4-dihydro-indeno[1,2-c]pyrazol-3-yl)-(3-fluoro-phenyl)-amine] | 106 | 91.1
COc1cc2c(cc1OC)[C@@H](C)c1c-2n[nH]c1Nc1cccc(Br)c1 [Compound 553, (4R)-N-(3-bromo-phenyl)-(6,7-dimethoxy-4-methyl-2,4-dihydro-indeno[1,2-c]pyrazol-3-yl)-amine] | 99.5 | 6.5
COc1cc2c(c(NC(C)=O)c1OC)Cc1c-2n[nH]c1Nc1cccc(F)c1 [Compound 557, N-[3-(3-Fluoro-phenylamino)-6,7-dimethoxy-2,4-dihydro-indeno[1,2-c]pyrazol-5-yl]-acetamide] | 102 | 32.5

More lines, now with the values ahead:

inhibition at 10 µM [%] | IC50 [nM] | SMILES
102 | 12.1 | COc1cc2c(c(N)c1OC)Cc1c-2n[nH]c1Nc1cccc(F)c1 [Compound 558, N3-(3-Fluoro-phenyl)-6,7-dimethoxy-2,4-dihydro-indeno[1,2-c]pyrazole-3,5-diamine]
102 | 24.7 | COc1cccc(Nc2n[nH]c3c2Cc2c-3cc(OC)c3oc(C)nc23)c1 [Compound 560, (4-Methoxy-2-methyl-6,9-dihydro-3-oxa-1,6,7-triaza-cyclopenta[b]-as-indacen-8-yl)-(3-methoxy-phenyl)-amine]
93.5 | 84 | COc1cc2c(cc1OC)-c1n[nH]c(Nc3ccccn3)c1C2 [Compound 562, (6,7-Dimethoxy-2,4-dihydro-indeno[1,2-c]pyrazol-3-yl)-pyridin-2-yl-amine]
89 | 1450 | COc1cc2c(cc1OC)-c1n[nH]c(NCc3ccccn3)c1C2 [Compound 563, (6,7-Dimethoxy-2,4-dihydro-indeno[1,2-c]pyrazol-3-yl)-pyridin-2-ylmethyl-amine]
99.5 | 886 | COc1cc2c(cc1OC)-c1n[nH]c(NCc3cccnc3)c1C2 [Compound 564, (6,7-Dimethoxy-2,4-dihydro-indeno[1,2-c]pyrazol-3-yl)-pyridin-3-ylmethyl-amine]
